Test results reported in patent US10947227B2, “Tricyclic heterocyclic compounds as sting activators” (Incyte Corporation, priority 2018, dated 2021).

System: IRF3 activation in THP-1 Dual Cells
Assay: IRF3 activation assay in THP-1 Dual Cells (QUANTI-Blue readout)
Assay type: cell-based
Conditions: Homo sapiens, THP1-Dual, 24 h
Experimental: THP-1 Dual Cells (Invivogen) were maintained in RPMI1640 medium with addition of 10% FBS, 100 μg/ml zeocin, 10 μg/ml blasticidin. Cells were added in a 96-well flat bottom assay plate at 100,000 per well in 100 μL complete RPMI medium. Test compounds were prepared by serial dilution in complete RPMI medium and 100 μL test compounds were transferred to each corresponding well. The assay plate was incubated at 37° C., 5% CO2 for 24 hours. After the overnight incubation, 20 μL of the culture supernatants were collected, followed by addition of 180 μL of QUANTI-Blue (Invivogen) to assess IRF3 activity. The amount of IRF3 activation was assessed by reading the absorbance at 620-655 nm with a microplate reader 2 hours later. The culture supernatant from the untreated THP-1 cells was used as the negative control. To determine the NF-κB activation, another 20 μL of culture supernatant were transferred to a 96-well white plate, followed by addition of 50 μL of Quanti-Luc™ assay solution (Invivogen). The amount of NF-κB activation induced by the test compounds were determined by the luminescence above the untreated control. EC50 determination was performed by fitting the curve of percent control activity versus the log of the compound concentration using the GraphPad Prism 6.0 software.

| SMILES | EC50 (Table 1, 24 hours incubation) | EC50 (Table 2, 24 hours incubation) |
| --- | --- | --- |
| CCn1nc(C)cc1C(=O)Nc1nc2cc(C(N)=O)cc(C)c2n1C/C=C/Cn1c2ccc(C(N)=O)cc2c2cnc(-c3cc(C)nn3CC)nc21 [Example 1, (E)-9-(4-(5-carbamoyl-2-(1-ethyl-3-methyl-1H-pyrazole-5-carboxamido)-7-methyl-1H-benzo[d]imidazol-1-yl)but-2-enyl)-2-(1-ethyl-3-methyl-1H-pyrazol-5-yl)-9H-pyrimido[4,5-b]indole-6-carboxamide] | < 1000 nM | 50 to 200 nM |
| CCn1nc(C)cc1C(=O)Nc1nc2cc(C(N)=O)cc(C)c2n1C/C=C/Cn1c2ccccc2c2cnc(-c3cc(C)nn3CC)nc21 [Example 2, (E)-1-(4-(2-(1-ethyl-3-methyl-1H-pyrazol-5-yl)-9H-pyrimido[4,5-b]indol-9-yl)but-2-enyl)-2-(1-ethyl-3-methyl-1H-pyrazole-5-carboxamido)-7-methyl-1H-benzo[d]imidazole-5-carboxamide] | < 1000 nM | 200 to 500 nM |
| CCn1nc(C)cc1C(=O)Nc1nc2cc(C(N)=O)cc(C)c2n1C/C=C/Cn1c2ccc(C(N)=O)cc2c2cnc(-c3cc(C)nn3C)nc21 [Example 3, (E)-9-(4-(5-carbamoyl-2-(1-ethyl-3-methyl-1H-pyrazole-5-carboxamido)-7-methyl-1H-benzo[d]imidazol-1-yl)but-2-enyl)-2-(1,3-dimethyl-1H-pyrazol-5-yl)-9H-pyrimido[4,5-b]indole-6-carboxamide] | < 1000 nM | – |
| CCn1nc(C)cc1C(=O)Nc1nc2cc(C(N)=O)cc(OC)c2n1C/C=C/Cn1c2ccc(C(N)=O)cc2c2cnc(-c3cc(C)nn3CC)nc21 [Example 4, (E)-9-(4-(5-carbamoyl-2-(1-ethyl-3-methyl-1H-pyrazole-5-carboxamido)-7-methoxy-1H-benzo[d]imidazol-1-yl)but-2-enyl)-2-(1-ethyl-3-methyl-1H-pyrazol-5-yl)-9H-pyrimido[4,5-b]indole-6-carboxamide] | < 1000 nM | 500 to 1000 nM |
| CCn1nc(C)cc1C(=O)Nc1nc2cc(C(N)=O)cc(C)c2n1C/C=C/Cn1c2ccc(C(N)=O)cc2c2ccc(-c3cc(C)nn3CC)nc21 [Example 5, (E)-9-(4-(5-carbamoyl-2-(1-ethyl-3-methyl-1H-pyrazole-5-carboxamido)-7-methyl-1H-benzo[d]imidazol-1-yl)but-2-en-1-yl)-2-(1-ethyl-3-methyl-1H-pyrazol-5-yl)-9H-pyrido[2,3-b]indole-6-carboxamide] | < 1000 nM | 50 to 200 nM |
| CCCn1nc(C)cc1-c1ncc2c3cc(C(N)=O)ccc3n(C/C=C/Cn3c(NC(=O)c4cc(C)nn4CC)nc4cc(C(N)=O)cc(C)c43)c2n1 [Example 6, (E)-9-(4-(5-carbamoyl-2-(1-ethyl-3-methyl-1H-pyrazole-5-carboxamido)-7-methyl-1H-benzo[d]imidazol-1-yl)but-2-enyl)-2-(3-methyl-1-propyl-1H-pyrazol-5-yl)-9H-pyrimido[4,5-b]indole-6-carboxamide] | < 200 nM | < 50 nM |
| CCn1nc(C)cc1C(=O)Nc1nc2cc(C(N)=O)cc(C)c2n1C/C=C/Cn1c2ccc(C(N)=O)cc2c2cnc(-c3ccnn3CC)nc21 [Example 7, (E)-9-(4-(5-carbamoyl-2-(1-ethyl-3-methyl-1H-pyrazole-5-carboxamido)-7-methyl-1H-benzo[d]imidazol-1-yl)but-2-enyl)-2-(1-ethyl-1H-pyrazol-5-yl)-9H-pyrimido[4,5-b]indole-6-carboxamide] | < 1000 nM | 200 to 500 nM |
| CCc1nn(C)cc1-c1ncc2c3cc(C(N)=O)ccc3n(C/C=C/Cn3c(NC(=O)c4cc(C)nn4CC)nc4cc(C(N)=O)cc(C)c43)c2n1 [Example 8, (E)-9-(4-(5-carbamoyl-2-(1-ethyl-3-methyl-1H-pyrazole-5-carboxamido)-7-methyl-1H-benzo[d]imidazol-1-yl)but-2-enyl)-2-(3-ethyl-1-methyl-1H-pyrazol-4-yl)-9H-pyrimido[4,5-b]indole-6-carboxamide] | < 1000 nM | 500 to 1000 nM |
| CCn1nc(C)cc1C(=O)Nc1nc2cc(C(N)=O)cc(C)c2n1C/C=C/Cn1c2ccc(C(N)=O)cc2c2cnc(-c3cc(C(F)(F)F)nn3CC)nc21 [Example 9, (E)-9-(4-(5-carbamoyl-2-(1-ethyl-3-methyl-1H-pyrazole-5-carboxamido)-7-methyl-1H-benzo[d]imidazol-1-yl)but-2-enyl)-2-(1-ethyl-3-(trifluoromethyl)-1H-pyrazol-5-yl)-9H-pyrimido[4,5-b]indole-6-carboxamide] | < 1000 nM | 200 to 500 nM |
| CCn1nc(C)cc1C(=O)Nc1nc2cc(C(N)=O)cc(C)c2n1C/C=C/Cn1c2nc(-c3cc(C)nn3CC)ncc2c2cc(C(N)=O)cc(OC)c21 [Example 10, (E)-9-(4-(5-carbamoyl-2-(1-ethyl-3-methyl-1H-pyrazole-5-carboxamido)-7-methyl-1H-benzo[d]imidazol-1-yl)but-2-enyl)-2-(1-ethyl-3-methyl-1H-pyrazol-5-yl)-8-methoxy-9H-pyrimido[4,5-b]indole-6-carboxamide] | < 200 nM | < 50 nM |
| CCn1nc(C)cc1C(=O)Nc1nc2cc(C(N)=O)cc(C)c2n1C/C=C/Cn1c2nc(-c3cc(C)nn3CC)ncc2c2cc(C(N)=O)cc(OCCCN3CCOCC3)c21 [Example 11, (E)-9-(4-(5-carbamoyl-2-(1-ethyl-3-methyl-1H-pyrazole-5-carboxamido)-7-methyl-1H-benzo[d]imidazol-1-yl)but-2-enyl)-2-(1-ethyl-3-methyl-1H-pyrazol-5-yl)-8-(3-morpholinopropoxy)-9H-pyrimido[4,5-b]indole-6-carboxamide] | < 200 nM | < 50 nM |
| CCn1nc(C)cc1C(=O)Nc1nc2cc(C(N)=O)cc(C)c2n1C/C=C/Cn1c2nc(-c3cc(C)nn3CC)ncc2c2cc(C(N)=O)cc(OCCCOC)c21 [Example 12, (E)-9-(4-(5-carbamoyl-2-(1-ethyl-3-methyl-1H-pyrazole-5-carboxamido)-7-methyl-1H-benzo[d]imidazol-1-yl)but-2-enyl)-2-(1-ethyl-3-methyl-1H-pyrazol-5-yl)-8-(3-methoxypropoxy)-9H-pyrimido[4,5-b]indole-6-carboxamide] | < 200 nM | < 50 nM |
| CCn1nc(C)cc1C(=O)Nc1nc2cc(C(N)=O)cc(C)c2n1C/C=C/Cn1c2nc(-c3cc(C)nn3CC)ncc2c2cc(C(N)=O)cc(OCCCO)c21 [Example 13, (E)-9-(4-(5-carbamoyl-2-(1-ethyl-3-methyl-1H-pyrazole-5-carboxamido)-7-methyl-1H-benzo[d]imidazol-1-yl)but-2-enyl)-2-(1-ethyl-3-methyl-1H-pyrazol-5-yl)-8-(3-hydroxypropoxy)-9H-pyrimido[4,5-b]indole-6-carboxamide] | < 200 nM | < 50 nM |
| CCn1nc(C)cc1C(=O)Nc1nc2cc(C(N)=O)cc(C)c2n1C/C=C/Cn1c2nc(-c3cc(C)nn3CC)ccc2c2cc(C(N)=O)cc(OC)c21 [Example 14, (E)-9-(4-(5-carbamoyl-2-(1-ethyl-3-methyl-1H-pyrazole-5-carboxamido)-7-methyl-1H-benzo[d]imidazol-1-yl)but-2-enyl)-2-(1-ethyl-3-methyl-1H-pyrazol-5-yl)-8-methoxy-9H-pyrido[2,3-b]indole-6-carboxamide] | < 200 nM | < 50 nM |
